Results on two compounds are retold here after PMC12562637 (Genes, 2025).

The structures appear in SMILES notation.

A short description of series [1]: Bleeding events (ISTH definition) in NVAF patients receiving apixaban; association by odds ratio. The series is classed as in vivo, human. On the procedure: The severity of bleeding was evaluated based on the definition provided by the International Society on Thrombosis and Hemostasis. In brief, events leading to a reduction in hemoglobin levels by at least 2 g/dL, fatal bleeding, or events occurring in critical body locations were considered major bleeding events. Events that required hospitalization, medical or surgical intervention, or a change in antithrombotic treatment were considered clinically relevant non-major. Any acute bleeding event not meeting the criteria for major or clinically relevant non-major bleeding was classified as a minor bleeding episode.
In all enrolled patients, allele-specific real-time PCR was used to identify polymorphic variants of ABCB1 (rs1045642 3435C>T, rs2032582 2677G>T/A, rs1128503 1236C>T), CYP3A4*22 (rs35599367), and CYP3A5*3 (rs776746, 6986A>G). Commercial kits (OOO Syntol, Moscow, Russia) were employed on a CFX96 Touch™ Real-Time PCR Detection System (Bio-Rad, Hercules, CA, USA).
The study data were subjected to statistical processing using both parametric and nonparametric methods. Statistical analyses were performed with the standard software package StatSoft Statistica 10.0 (Dell, Round Rock, TX, USA). Quantitative variables were assessed for normality using the Kolmogorov–Smirnov test (for sample sizes > 50), as well as by evaluating skewness and kurtosis. For quantitative variables with a normal distribution, the data were organized into variational series, and arithmetic means (M) with standard deviations (SD) were calculated. Comparisons of means in normally distributed quantitative datasets were performed using Student’s t-test, with obtained values evaluated against critical thresholds. For categorical variables, differences in frequency distributions were assessed using the χ^2 test, and Fisher’s exact test was applied when the number of observations was small. To quantify the effect of genetic markers on complication occurrence, odds ratios (ORs) with 95% confidence intervals (CIs) were calculated. Statistical significance for all analyses was defined at p < 0.05. For genetic analyses, multiple-testing correction was performed using the Benjamini–Hochberg false discovery rate (FDR) procedure.

For series [2] the following is noted: cited from earlier work.

Take `COc1ccc(-n2nc(C(N)=O)c3c2C(=O)N(c2ccc(N4CCCCC4=O)cc2)CC3)cc1` [apixaban]: in series [1] (both, human, in vivo), the “Bleeding event in the context of surgery” value is on record as 1 case; the Epistaxis worked out at 31 cases; the Gastrointestinal bleeding is recorded as 3 cases; the Hematomas and ecchymoses is on record as 3 cases. Besides, in series [1] (both, human, in vivo), the Peptic ulcer exacerbation stood at 1 case and the Uterine bleeding is recorded as 1 case. Also, in series [1] (both, human, in vivo, 1.95 years), the “OR of bleeding events by sex” value is 1.119. For the same compound, in series [2], the “Interindividual variability in exposure” value is recorded as around 30% and the “Intraindividual variability in exposure” value is reported as “approximately 20%”.
Turning to `CCC(C)(C)C(=O)O[C@H]1C[C@@H](C)C=C2C=C[C@H](C)[C@H](CC[C@@H]3C[C@@H](O)CC(=O)O3)[C@H]21` [simvastatin], the “Association with incidence of bleeding events” value in series [1] (simvastatin (n = 8) as co-medication with apixaban) is given as “did not show an increase in incidence of bleeding events”.
